# Patent US9164084B2, “Methods for determining aggressiveness of a cancer and treatment thereof” (Purdue Research Foundation, priority 2012, dated 2015)
# “Also recorded” adds a separate entry of the source.
# Legend:
# LNCaP-HP cells [1] = assay: Spectroscopic (SRL) imaging and Raman spectral analysis of lipid droplets in LNCaP-HP cells; type: cell-based, human
# Protocol: The LNCaP-HP cells were treated with an ACAT inhibitor, avasimibe (structure shown in FIG. 13, Panel D), at 10 μM for 2 days.
# A broad spectrum of human prostate epithelial cells has been examined. […] Loss of the tumor suppressor PTEN has been widely observed in both localized and metastatic prostate cancer and correlated with high Gleason grade. With loss of PTEN, PI3K signaling is hyper-activated, which, in turn, leads to AKT activation. […] AKT mediates the phosphorylation and activation of mTOR complex 1 (mTORC1) which plays critical roles in the regulation of protein and lipid biosynthesis. To determine whether the PI3K/AKT/mTOR pathway regulates cholesteryl ester accumulation, both types of cholesteryl ester rich cell lines, PC-3 and high passage LNCaP (LNCaP-HP), were treated with LY294002 (PI3K inhibitor), MK2206 (AKT inhibitor), and Rapamycin (mTOR inhibitor), respectively.
# (§1) It is well known that LDL enters a cell via LDL receptor (LDLr) and traffics to the late endosome and lysosome where it is hydrolyzed to free fatty acids and free cholesterol. The excess free cholesterol together with the fatty acyl CoA substrate is then converted to cholesteryl ester by Acyl coenzyme A: cholesterol acyltransferase (ACAT) and stored in lipid droplets. Thus, cells were separately treated with Avasimibe and Sandoz 58-035, two different ACAT inhibitors. […] The significant reduction of cholesteryl ester accumulation upon Avasimibe treatment was further confirmed by an independent biochemical assay of cell lysates.
# PC-3 cells [2] = assay: Cell growth / viable cell number of PC-3 cells; type: cell-based, human
# Protocol: Because cholesteryl ester accumulation was found in PCa but not in normal prostate, how cell viability could be affected by regulating cholesteryl ester levels with the ACAT inhibitor Avasimibe was evaluated. […] The inhibitory effect of Avasimibe on the growth of PC-3 and LNCaP-HP cells was considerably greater than that in cholesteryl ester poor cancer cells including LNCaP-LP, DU145, and C4-2.
# PC-3 cells [3] = assay: Flow cytometry analysis of cell cycle and apoptosis in PC-3 cells; type: cell-based, human
# PC-3 cells [4] = assay: Cellular uptake of DiI-labeled LDL in PC-3 cells; type: cell-based, human; conditions: PC-3, 2-day treatment
# Text: Because cholesterol can be either de novo synthesized via the mevalonate pathway or taken up from exogenous lipoproteins, the source of cholesterol used for cholesteryl ester accumulation was investigated. PC-3 cell were first treated with Simvastatin, an inhibitor of 3-hydroxy-3-methylglutaryl coenzyme A HMG-CoA reductase, the rate-limiting enzyme of the mevalonate pathway. […] In contrast, after treating cells with lipoprotein-deficient serum (LPDS), lipid droplets nearly disappeared in cholesteryl ester rich PC-3 and LNCaP-HP cells (FIG. 29, Panel A), but remained the same amount in cholesteryl ester poor cells including LNCaP-LP, DU145, and C4-2. Re-addition of low-density lipoprotein (LDL) into the LPDS medium restored lipid droplets and cholesteryl ester in both PC-3 and LNCaP-HP cells (FIG. 29, Panel B).
# Finally, it was investigated whether Avasimibe-mediated suppression of tumor growth is associated with the regulation of cholesterol metabolism machinery. It was hypothesized that abrogating ACAT activity would up-regulate cellular level of free cholesterol and then down-regulate SREBP and LDLr in PCa cells (FIG. 40). […]
# LNCaP-HP cells [5] = assay: Cellular uptake of DiI-labeled LDL in LNCaP-HP cells; type: cell-based, human; conditions: 2-day treatment
# Text: (§2) Finally, it was investigated whether Avasimibe-mediated suppression of tumor growth is associated with the regulation of cholesterol metabolism machinery. It was hypothesized that abrogating ACAT activity would up-regulate cellular level of free cholesterol and then down-regulate SREBP and LDLr in PCa cells (FIG. 40). […] To provide an explanation for enhanced uptake of LDL and then storage of excess cholesterol in the form of cholesteryl ester in aggressive prostate cancer, it was noticed that LDL is the primary carrier of essential polyunsaturated fatty acid including arachidonic acid (AA). Inside cells, AA is converted to a wide range of eicosanoids, which have been implicated in various pathological processes such as inflammation and cancer.
# PC-3 cells [6] = assay: Immunoblotting of SREBP and LDLr in PC-3 cells; type: cell-based, human
# Text: It has been shown that mTOR plays a key role in regulating the function of sterol regulatory element-binding proteins (SREBPs) which control lipid and cholesterol homeostasis. Specifically, when cellular sterol levels decrease, SREBP-1a and/or -2 precursors are cleaved to activate the expression of genes involved in de novo cholesterol synthesis and LDL-cholesterol uptake. […] Similar results for on LNCaP-HP cells were obtained.
# as §2
# PC-3 cells [7] = assay: Standard biochemical assay of CE and free cholesterol in PC-3; type: cell-based, human; conditions: PC-3, 2-day treatment
# Text: as §1, §2
# PC-3 cells [8] = assay: LC-MS of arachidonic acid (AA) in PC-3 cell lysates; type: cell-based, human
# Text: as §2
# [9] = test system: pancreatic cancer cells (BxPC3 and PANC-1); assay: Western blot of pancreatic cancer cells before and after avasimibe treatment; type: cell-based; conditions: pancreatic cancer cells (FIG. 49)
# Protocol: In order to understand how lipids accumulate in pancreatic cancer, several in vitro studies using two common pancreatic cancer cell lines, BxPC3 and PANC-1 were performed. Since ACAT is the enzyme responsible for the conversion from cholesterol to cholesteryl ester the effects of inhibiting ACAT-1, the universally expressed isoform, on lipid metabolism in pancreatic cancer cells were first examined. […] To explore the molecular mechanism, western blot of the cells before and after avasimibe treatment were performed.
# PANC-1 cells = assay: Cell viability (ATP level) of PANC-1 cells; type: cell-based; conditions: 7.5 μM for various periods
# Protocol: The cells were treated with […] (control) or 7.5 μM avasimibe for various periods. Then cells were lysed and ATP level were quantified to determine the number of viable cells.
# As the ACAT-1 inhibitor, avasimibe, effectively removed lipid droplet or cholesteryl ester accumulation in pancreatic cancer cells, the use of avasimibe as a chemotherapy agent for pancreatic cancer was explored. The effects of avasimibe on cell viability in BxPC3 and PANC-1 cells were examined.
smiles,measurement,setting,value
"CC(C)c1cc(C(C)C)c(CC(=O)NS(=O)(=O)Oc2c(C(C)C)cccc2C(C)C)c(C(C)C)c1 [Avasimibe, avasimibe]",lipid droplet amount,LNCaP-HP cells [1],remaining unchanged
same,accumulation of cholesteryl ester in lipid droplets (702 cm^-1 Raman peak),LNCaP-HP cells [1]; 10 μM for 2 days,completely blocked the accumulation of CHOLESTERYL ESTER
same,cell morphology,LNCaP-HP cells [1]; 10 μM for 2 days,reversed the cell morphology to that of LNCaP-LP cells
same,cholesteryl ester accumulation,LNCaP-HP cells [1]; ACAT inhibitor treatment,effectively suppressed cholesteryl ester accumulation
same,IC50,"PC-3 cells [2]; Homo sapiens, 72 h, PC-3 cell, 3 days",7.32 µM
same,cytotoxicity at 7.5 µM,"PC-3 cells [2]; Homo sapiens, 72 h, PC-3 cells, 3 days of 7.5 μM, read-out: reduction in viable cell number",~48%
same,proliferation (viable cell number),PC-3 cells [2]; PC-3 cells (FIG. 31),significantly hampered the proliferation
same,G2/M phase population compared to control group,PC-3 cells [3],2 times smaller
same,sub G0/G1 population compared to control group,PC-3 cells [3],~3 times larger
same,uptake of DiI-labeled LDL,PC-3 cells [4],drastically inhibited LDL uptake
same,uptake of DiI-labeled LDL,LNCaP-HP cells [5],drastically inhibited LDL uptake
same,LDLr level (immunoblot),PC-3 cells [6],down-regulation
same,SREBP-1 level (immunoblot),PC-3 cells [6],down-regulation
same,level of CE,PC-3 cells [7],reduced the level of CE
same,level of free cholesterol,PC-3 cells [7],slightly increased the level of free cholesterol
same,level of AA (arachidonic acid),PC-3 cells [8],significantly reduced the level of AA
same,HMGCoA reductase level (western blot),[9],significantly reduced the level of HMGCoA reductase
same,HMGCoA reductase level (western blot),[9]; listed as avasimibe,reduced the expression of HMGCoA reductase
same,LDL receptor level (western blot),[9]; listed as avasimibe,not affected
same,cell viability (ATP level),PANC-1 cells,significantly reduced cell viability
same,cell viability (ATP level),PANC-1 cells; listed as avasimibe,significantly reduced the viability; also recorded: dramatically reduced the cell viability
